Data as given in patent EP1203770A1 (priority 1992, dated 1994).
Like-named read-outs stand apart in the source and are kept apart here.

Target: T1, HIV-1 protease (Human immunodeficiency virus type 1 group M subtype B, UniProt P04585)
T1 construct: The protease (or proteinase), consisting of only 99 amino acids, is among the smallest enzymes known
Assay: In vitro HIV protease inhibitory assay (HIV Protease FITC Assay)
Assay type: biochemical
Conditions: for inhibition at 0.123 µM / inhibition at 0.37 µM / inhibition at 1.1 µM / inhibition at 3.3 µM / inhibition at 10 µM / inhibition at 30 µM / inhibition at 1 µM / inhibition at 100 µM / inhibition at 0.41 µM / inhibition at 1.23 µM / inhibition at 3.7 µM / inhibition at 11 µM / inhibition at 33 µM: read-out: HIV-1 Protease % Inhib; for inhibition at 1 µM: HIV-1 Dose 1.000 uM; for inhibition at 100 µM: HIV-1 Dose 100.000 uM; for inhibition at 0.41 µM: HIV-1 Dose 0.410 uM; for inhibition at 1.23 µM: HIV-1 Dose 1.230 uM; for inhibition at 3.7 µM: HIV-1 Dose 3.700 uM; for inhibition at 11 µM: HIV-1 Dose 11.000 uM; for inhibition at 33 µM: HIV-1 Dose 33.000 uM
Method in brief: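 Percent inhibition was read as fluorescence after avidin-bead capture and filtration separated FITC cleavage product from biotinylated substrate. Enzyme and substrate reacted 1 h, RT, dark, at pH 5.5 (0.1 M sodium acetate, 1.0 M NaCl, 0.05% NP-40).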

Compound | inhibition at 0.123 µM (HIV-1 Dose 0.123 uM) [%] | inhibition at 0.37 µM (HIV-1 Dose 0.370 uM) [%] | inhibition at 1.1 µM (HIV-1 Dose 1.100 uM) [%] | inhibition at 3.3 µM (HIV-1 Dose 3.300 uM) [%] | inhibition at 10 µM (HIV-1 Dose 10.000 uM) [%] | inhibition at 30 µM (HIV-1 Dose 30.000 uM) [%] | inhibition at 1 µM [%] | inhibition at 100 µM [%] | Ki (read-out: HIV-1 FITC Ki) [µM] | other results
CCC(Cc1ccccc1)c1cc(O)c(C(c2cccc(NS(=O)(=O)c3ccc(C(C)(C)C)cc3)c2)C2CC2)c(=O)o1 (stereo not drawn) [Example 183, 3-(α-Cyclopropyl-meta-(4-tert-butylphenylsulfonylamino)benzyl)-6-(α-ethylphenethyl)-4-hydroxy-2H-pyran-2-one] | < 10 | 11.9 | 28.2 | 60.6 | 88.9 | 90.8 |  |  |  | 
CCC(c1ccccc1)c1c(O)cc(CCc2ccc3ccccc3c2)oc1=O (stereo not drawn) [Example 16, 3-(α-ethylbenzyl)-4-hydroxy-6-(2-naphth-2-ylethyl)-2H-Pyran-2-one] |  |  |  |  | < 10 |  | < 10 | 49.9 |  | 
CCC(Cc1ccc(C(F)(F)F)cc1)c1cc(O)c(C(c2ccccc2)C2CC2)c(=O)o1 (stereo not drawn) [Example 160, 3-(α-cyclopropylbenzyl)-4-hydroxy-6-(α-ethyl-p-triflurormethylphenethyl)-2H-pyran-2-one] | < 10 | 12.2 | 39.4 | 78.2 | 89.7 | 92.1 |  |  |  | 
COCCOCCCc1oc(=O)c(C(c2ccccc2)C2CC2)c(O)c1CCOCCOC (stereo not shown) [Example 103] |  |  |  |  | 31.3 |  | 26.6 | 83 |  | 
C=CC(c1ccccc1)c1c(O)cc(C)oc1=O (stereo not shown) [PREPARATION 10, 4-Hydroxy-6-methyl-3-(1'-phenyl-2'-propenyl)-2-pyrone] |  |  |  |  | < 10 |  | < 10 | 43.5 |  | HIV activity: found to have HIV activity
CCCc1oc(=O)c(C(c2ccccc2)C2CC2)c(O)c1CCOCCOC (stereo not shown) [Example 78, 3-(Cyclopropyl-phenyl-methyl)-4-hydroxy-5-[2-(2-methoxy-ethoxy)-ethyl]-6-propyl-pyran-2-one] |  |  |  |  |  |  |  | 106 | 0.196 | inhibition at 0.41 µM: 50.5%; inhibition at 1.23 µM: 68.9%; inhibition at 3.7 µM: 93.2%; inhibition at 11 µM: 101%; inhibition at 33 µM: 107%
CCC(Cc1ccccc1C(F)(F)F)c1cc(O)c(C(c2ccccc2)C2CC2)c(=O)o1 (stereo not drawn) [Example 162, 3-(α-cyclopropylbenzyl)-4-hydroxy-6-(α-ethyl-o-triflurormethylphenethyl)-2H-pyran-2-one] | < 10 | < 10 | < 10 | 34.4 | 52 | 72.3 |  |  |  | 
CCC(C1=C(O)CC2(CCC3(CC2)OCCO3)OC1=O)c1ccccc1 (stereo not shown) [Example 114, 12-Hydroxy-11-(1-phenyl-propyl)-1,4,9-trioxa-dispiro[4.2.5.2]pentadec-11-en-10-one] |  |  |  |  |  |  |  | 55.4 | 4.29 | inhibition at 0.41 µM: < 10%; inhibition at 1.23 µM: < 10%; inhibition at 3.7 µM: 25.8%; inhibition at 11 µM: 63.5%; inhibition at 33 µM: 67.5%
C=CCC(CC=C)c1cc(O)c(C(c2ccccc2)C2CC2)c(=O)o1 (stereo not shown) [Example 97, 6-(1-Allyl-but-3-enyl)-3-(cyclopropyl-phenyl-methyl)-4-hydroxy-pyran-2-one] |  |  |  |  | 99.6 |  | 75.9 | 110 | 0.1 | 
COCCOCCC(Cc1ccccc1)c1cc(O)c(C(c2ccccc2)C2CC2)c(=O)o1 (stereo not shown) [Example 107, 6-(1-Benzyl-3-(2-methoxy-ethoxy)-propyl)-3-(cyclopropyl-phenyl-methyl)-4-hydroxy-pyran-2-one] |  |  |  |  |  |  |  | 110 | 0.041 | inhibition at 0.41 µM: 50%; inhibition at 1.23 µM: 80.3%; inhibition at 3.7 µM: 100%; inhibition at 11 µM: 103%; inhibition at 33 µM: 109%
COCCOCCCc1cc(O)c(C(c2ccccc2)C2CC2)c(=O)o1 (stereo not shown) [Example 102, 3-(Cyclopropyl-phenyl-methyl)-4-hydroxy-6-(3-(2-methoxy-ethoxy)-propyl)-pyran-2-one] |  |  |  |  | 62.2 |  | 33.8 | 105 | 1.52 | 
O=c1oc(C(CC2CC2)CC2CC2)cc(O)c1C(Cc1ccccc1)Cc1ccccc1 [Example 79, 3-(1-Benzyl-2-phenyl-ethyl)-6-(2-cyclopropyl-1-cyclopropylmethyl-ethyl)-4-hydroxy-pyran-2-one] | 39.9 | 76.7 | 106 | 111 | 122 | 117 |  |  | 0.033 | 
O=C1OC(CCc2ccccc2)(CCc2ccccc2)CC(O)=C1C(C=Cc1ccccc1)c1ccccc1 (stereo not shown) [Example 236, 2H-Pyran-2-one, 5,6-dihydro-4-hydroxy-6,6-di-(2-phenylethyl)-3-(1,3-diphenyl-2-propenyl)-] | < 10 | < 10 | 26 | 54.1 | 75.8 | 78.7 |  |  |  | 
CCCCC1(Cc2ccccc2)CC(O)=C(C(CC)c2ccccc2)C(=O)O1 (stereo not shown) [Example 220, 2H-Pyran-2-one, 6-butyl-5,6-dihydro-4-hydroxy-6-phenylmethyl-3-(1-phenylpropyl)-] | < 10 | < 10 | 21.3 | 51.6 | 68.4 | 62.2 |  |  |  | 
CCCC1(CCc2ccccc2)CC(O)=C(C(c2ccc(COCOC)s2)C2CC2)C(=O)O1 (stereo not drawn) [Example 240, 2H-Pyran-2-one, 3-(α-cyclopropyl-[5-(methoxymethoxy-methyl)-thiophen-2-yl]-methyl)-5,6-dihydro-4-hydroxy-6-(2-phenylethyl)-6-propyl-] | < 10 | 40.6 | 68.7 | 95 | 113 | 104 |  |  | 0.0292 | 
CCC(CCCl)c1cc(O)c(C(c2ccccc2)C2CC2)c(=O)o1 (stereo not shown) [Example 66, 6-(3-Chloro-1-ethyl-propyl)-3-(cyclopropyl-phenyl-methyl)-4-hydroxy-pyran-2-one] | < 10 | 36 | 75.3 | 99.4 | 102 | 108 |  |  | 0.053 | 
3-(α-Cyclopropyl-meta-(tert-butyloxycarbonylamino)benzyl)-6-(α-cyclopropylmethyl-cyclopropylethyl)-4-hydroxy-2H-pyran-2-one [Example 38] |  |  |  |  |  |  |  |  |  | HIV-1 Protease % Inhib (HIV-1 Dose 0.123 uM): <10%; HIV-1 Protease % Inhib (HIV-1 Dose 0.370 uM): <10%; HIV-1 Protease % Inhib (HIV-1 Dose 1.100 uM): <10%; HIV-1 Protease % Inhib (HIV-1 Dose 3.300 uM): 26.72%; HIV-1 Protease % Inhib (HIV-1 Dose 10.000 uM): 58.44%; HIV-1 Protease % Inhib (HIV-1 Dose 30.000 uM): 69.94%
CC(C)Cc1cc(O)c(C(c2ccccc2)C2CC2)c(=O)o1 (stereo not shown) [Example 75, 3-(Cyclopropyl-phenyl-methyl)-4-hydroxy-6-isobutyl-pyran-2-one] | 11.5 | 33.8 | 66 | 86.6 | 98.5 | 104 |  |  | 0.127 | 
CCC(Cc1ccccc1)c1cc(O)c(C(c2cccc(NS(=O)(=O)c3ccc(Cl)cc3)c2)C2CC2)c(=O)o1 (stereo not drawn) [Example 224, 3-(α-Cyclopropyl-meta-(4-chlorophenylsulfonylamino)benzyl)-6-(α-ethylphenethyl)-4-hydroxy-2H-pyran-2-one] |  |  |  |  |  |  |  |  |  | Ki: 0.0147 µM; inhibition at 0.123 µM: 46.9%; inhibition at 0.37 µM: 76.9%; inhibition at 1.1 µM: 99.6%; inhibition at 3.3 µM: 97.1%; inhibition at 10 µM: 110%; inhibition at 30 µM: 105%
CCC(CC1CCOCC1)c1cc(O)c(C(c2ccccc2)C2CC2)c(=O)o1 (stereo not shown) [Example 58] |  |  |  |  |  |  |  | 110 | 0.048 | inhibition at 0.41 µM: 74.5%; inhibition at 1.23 µM: 91.1%; inhibition at 3.7 µM: 107%; inhibition at 11 µM: 108%; inhibition at 33 µM: 115%
CCC(c1ccccc1)c1c(O)cc(C(Cc2ccccc2)Cc2ccccc2)oc1=O (stereo not shown) [Example 101, 6-(1-Benzyl-2-phenyl-ethyl)-4-hydroxy-3-(1-phenyl-propyl)-pyran-2-one] |  |  |  |  | 78.8 |  | 52.2 | 97.9 |  | 
Cc1noc(C)c1CCc1cc(O)c(C(c2ccccc2)C2CC2)c(=O)o1 (stereo not shown) [Example 43, 3-(Cyclopropyl-phenyl-methyl)-6-(2-(3,5-dimethyl-isoxazol-4-yl)-ethyl)-4-hydroxy-pyran-2-one] |  |  |  |  | 89.4 |  | 44.6 | 97.3 | 0.46 | 
CCCC1(Cc2ccccc2)CC(O)=C(C(CCc2ccccc2)c2ccccc2)C(=O)O1 (stereo not shown) [Example 177, 3-(1,3-Diphenylpropyl)-5,6-dihydro-4-hydroxy-6-(phenylmethyl)-6-propyl-2H-pyran-2-one] | < 10 | 19.7 | 48.2 | 74.2 | 89.3 | 95 |  |  |  | 
